The values that follow come from ChEMBL document CHEMBL5154886, “Novel Capsid Inhibitors for Treating HIV Infection” (ACS Med Chem Lett, 2022).

The assay deals with Human immunodeficiency virus 1. The assay is described as follows: Antiviral activity against HIV-1 IIIB infected in human MT4 cells assessed as inhibition of viral replication measured after 5 days by Celltiter-Glo assay. Type of assay: functional, organism-based. To be noted: Human immunodeficiency virus 1, IIIB, MT4, 120 h. Background: ATP-based viability assays read luminescence as a measure of living cells.
As for `Cn1nc(N)c2cccc(-c3cc4sc(N5CC(C)(O)C5)nc4nc3[C@H](Cc3cc(F)cc(F)c3)NC(=O)Cn3nc(C(F)F)c4c3C3CC3CC4)c21` (stereo partly specified), the EC50 is 1.3 nM.

Turning to `COCc1nc2nc([C@H](Cc3cc(F)cc(F)c3)NC(=O)Cn3nc(C(F)(F)F)c4c3C(F)(F)[C@@H]3C[C@H]43)c(-c3ccc(Cl)c4c(NS(C)(=O)=O)nn(C)c34)cc2[nH]1`, the EC50 came to 2.1 nM.

For the molecule `COCc1nc2nc([C@H](Cc3cc(F)cc(F)c3)NC(=O)Cn3nc(C(F)F)c4c3C(F)(F)[C@@H]3C[C@H]43)c(-c3ccc(Cl)c4c(NS(C)(=O)=O)nn(C)c34)cc2[nH]1`, the half-maximal effective concentration (EC50) stood at 1.5 nM.

Take `Cc1nc2nc([C@H](Cc3cc(F)cc(F)c3)NC(=O)Cn3nc(C(F)F)c4c3C(F)(F)[C@@H]3C[C@H]43)c(-c3ccc(Cl)c4c(NS(C)(=O)=O)nn(C)c34)cc2[nH]1`: the EC50 is 1.6 nM.

As for `Cc1nc2nc([C@H](Cc3cc(F)cc(F)c3)NC(=O)Cn3nc(C(F)(F)F)c4c3C(F)(F)[C@@H]3C[C@H]43)c(-c3ccc(Cl)c4c(NS(C)(=O)=O)nn(C)c34)cc2[nH]1`, the EC50 worked out at 2.4 nM.

`Cn1cc(-c2nc3nc([C@H](Cc4cc(F)cc(F)c4)NC(=O)Cn4nc(C(F)F)c5c4C(F)(F)[C@@H]4C[C@H]54)c(-c4ccc(Cl)c5c(NS(C)(=O)=O)nn(C)c45)cc3[nH]2)cn1`: the EC50 was 3 nM.

Usually EC50 stands for the midpoint of the concentration-response curve.
